Starred links: 1 amine or outer side, 2 acyl side, 3 side chain; linkers in the order of their positions; H or OH if unused. Positions of bridges follow the written chain, without caps; N, C: chain ends. Non-standard residues stand in square brackets, D forms with d. Residues, ends and D or L forms follow the SMILES beside them. *: point of attachment. X2 = C[C@H](Oc1ccc([C@H](N[*:1])C(=O)[*:2])cc1)[C@@]1(/C=C/C(=O)[*:3])CO1; X1 = CC(C)[C@H](O)[C@H](C)C(=O)*; aIle = CC[C@@H](C)[C@H](N)C(=O)O; dNMeF = CN[C@H](Cc1ccccc1)C(=O)O; aThr = C[C@H](O)[C@H](N)C(=O)O
Assays:
[1] = system: Sal-resistant mutants of E. coli D21f2tolC (rpoC / rpoB substitutions); test: Broth microdilution resistance / cross-resistance levels of spontaneous Sal-resistant mutants; assay type: cell-based, Escherichia coli
Description: Isolation of Sal-Resistant Mutants: Spontaneous Sal-Resistant Mutants. E. coli D21f2tolC (6) was cultured to saturation in 5 ml LB broth (7) at 37° C., cultures were centrifuged, and cell pellets (˜3×10^9 cells) were re-suspended in 50 μl LB broth and plated on LB agar (7) containing 1.2 μg/ml Sal (a concentration four times the minimal concentration required to prevent growth of wild-type cells under these conditions), and incubated 24-48 h at 37° C. Sal-resistant mutants were identified by the ability to form colonies on this medium and were confirmed by re-streaking on the same medium.
(§1) Quantitation of Resistance to Sal. Resistance to Sal was quantified by performing broth microdilution assays. Single colonies were inoculated into 3 ml LB broth, and incubated 3-6 h at 37° C. with shaking. Diluted aliquots (2×10^4 cells in 98 μl LB broth; concentrations determined using OD600=1 for 10^9 cells) were dispensed into wells of a 96-well plate, were supplemented with 2 μl of a 2-fold dilution series of Sal in methanol (final concentrations of […], 0.390, 0.195, 0.0975, 0.0488, 0.0244, 0.0122, and 0.00609 μg/ml) or 2 μl of a solvent blank, and were incubated 16 h at 37° C. with shaking. The minimum inhibitory concentration (MIC) was defined as the lowest tested concentration of Sal that inhibited bacterial growth by 95%.
Quantitation of Cross-Resistance to Rifampin and CBR703. Cross-resistance levels were determined analogously to resistance levels, using 0.12-0.78 μg/ml of rifampin (Sigma, Inc.) and 0.39-25 μg/ml of CBR703 (Maybridge, Inc.).

[2] = system: D21f2tolC pRL663 and D21f2tolC pRL706 derivatives; test: Broth microdilution resistance levels of induced Sal-resistant mutants (plasmid-borne rpoC / rpoB); assay type: cell-based, Escherichia coli; conditions: for resistance level (MIC/MICwild-type): induced mutant
Description: Isolation of Sal-Resistant Mutants: Induced Sal-Resistant Mutants. E. coli Random mutagenesis of rpoC in plasmid pRL663 and rpoB in plasmid pRL706 was performed as in 24, mutagenenized plasmids were passaged in E. coli XL1-Blue (Stratgene, Inc.) as in 24, mutagenized plasmids were introduced by transformation into E. coli D21f2tolC as in 24, and transformants (˜1×10^4 cells) were applied to LB-agar plates containing 1 μg/ml Sal, 200 μg/ml ampicillin, and 1 mM IPTG, and plates were incubated 16-24 h at 37° C. Sal-resistant mutants were identified by the ability to form colonies on this medium and were confirmed by re-streaking on the same medium.
as §1

[3] = rpoC (RNAP β′ subunit) 780 Arg→Cys

CC[C@@H](C)[C@@H]1NC(=O)[C@H](NC(=O)[C@@H](C)[C@@H](O)C(C)C)[C@H](C)OC(=O)[C@H]2COC(=O)CNC(=O)/C=C/[C@@]3(CO3)[C@H](C)Oc3ccc(cc3)[C@H](NC1=O)C(=O)N(C)[C@H](Cc1ccccc1)C(=O)N[C@@H]([C@H](C)O)C(=O)N2 [Sal, salinamide A] (X1-[dT][aIle][X2][dNMeF][aThr][dS]; ester 1-C; linker 3-6 via G)
resistance to Sal, all analyzed mutants ([1]; all analyzed Sal-resistant mutants (Tables 2, 3)): at least 2 fold | resistance level (MIC/MICwild-type) ([1]; rpoB (RNAP β subunit) 569 Ile→Ser): >16 | resistance level (MIC/MICwild-type) ([1]; rpoB (RNAP β subunit) 675 Asp→Ala): >16 | resistance level (MIC/MICwild-type) ([1]; rpoB (RNAP β subunit) 677 Asn→His): >16 | resistance level (MIC/MICwild-type) ([1]; rpoB (RNAP β subunit) 677 Asn→Lys): >16 | resistance level (MIC/MICwild-type) ([1]; rpoC (RNAP β′ subunit) 690 Asn→Asp): 16 | resistance level (MIC/MICwild-type) ([1]; rpoC (RNAP β′ subunit) 697 Met→Val (one isolate also 1054 Thr→Ala)): >16 | resistance level (MIC/MICwild-type) ([1]; rpoC (RNAP β′ subunit) 738 Arg→Cys): >16 | resistance level (MIC/MICwild-type) ([1]; rpoC (RNAP β′ subunit) 738 Arg→His): >16 | resistance level (MIC/MICwild-type) ([1]; rpoC (RNAP β′ subunit) 738 Arg→Pro): >16 | resistance level (MIC/MICwild-type) ([1]; rpoC (RNAP β′ subunit) 738 Arg→Ser): >16 | resistance level (MIC/MICwild-type) ([1]; rpoC (RNAP β′ subunit) 748 Ala→Glu): 16 | resistance level (MIC/MICwild-type) ([1]; rpoC (RNAP β′ subunit) 758 Pro→Ser): 16 | resistance level (MIC/MICwild-type) ([1]; rpoC (RNAP β′ subunit) 763 Phe→Cys): 16 | resistance level (MIC/MICwild-type) ([1]; rpoC (RNAP β′ subunit) 775 Ser→Ala): 8 | resistance level (MIC/MICwild-type) ([1]; rpoC (RNAP β′ subunit) 779 Ala→Thr): >16 | resistance level (MIC/MICwild-type) ([1]; rpoC (RNAP β′ subunit) 779 Ala→Val): >16 | resistance level (MIC/MICwild-type) [1, 3]: >16 | resistance level (MIC/MICwild-type) ([1]; rpoC (RNAP β′ subunit) 783 Leu→Arg): >16 | resistance to Sal, thirteen mutants ([1]; thirteen of the Sal-resistant mutants): > 16 fold | MIC with wild-type rpoC and wild-type rpoB ([2]; D21f2tolC pRL663 and D21f2tolC pRL706 derivatives, wild-type plasmid genes): ^aAssayed as D21f2tolC pRL663 and D21f2tolC pRL706 derivatives; MIC with wild-type rpoC and wild-type rpoB was 0.098 μg/ml. | resistance level (MIC/MICwild-type) ([2]; rpoB (RNAP β subunit) 561 Ile→Ser): 2 | resistance level (MIC/MICwild-type) ([2]; rpoB (RNAP β subunit) 665 Ala→Glu): 8 | resistance level (MIC/MICwild-type) ([2]; rpoB (RNAP β subunit) 680 Leu→Met): 4 | resistance level (MIC/MICwild-type) ([2]; rpoC (RNAP β′ subunit) 758 Pro→Thr): 4 | resistance level (MIC/MICwild-type) [2, 3]: 8 | resistance level (MIC/MICwild-type) ([2]; rpoC (RNAP β′ subunit) 782 Gly→Cys): 8

Reference: patent US9060970B2, “Bridge-helix cap: target and method for inhibition of bacterial RNA polymerase” (priority 2011, dated 2015)
